# Measured values as given in PMC11544713, “The Application of Untargeted Metabolomic Approaches for the Search of Common Bioavailable Metabolites in Human Plasma Samples from Lippia citriodora and Olea europaea Extracts” (Journal of Agricultural and Food Chemistry, 2024).
# Counter-ions that a name gives are not always drawn.
# Key:
# [1] = Acute intervention: nutrikinetics of plasma metabolites after ingestion of L. citriodora extract (untargeted HPLC-ESI-QTOF-MS)
# Method: (§1) A total of 25 healthy individuals participated, with an average age of 27 ± 9 years and a mean body mass index (BMI) of 23 ± 3 kg/m^2. None of the participants were taking any medications or nutritional supplements nor did they have any chronic diseases or gastrointestinal issues. The sample size was established based on findings from previous bioavailability research.[14] All participants provided informed consent before participating in the study.
# (§2) The intervention study was carried out at Miguel Hernández University. Following an overnight fast, the volunteers were categorized into the subsequent groups: a subgroup to evaluate the LC leaf extract (n = 8), another for the OE leaf extract (n = 8), and the placebo subgroup (n = 9). This was a double-blind study, in which sample collection and treatment were carried out uniformly across all three subgroups.
# (§3) Water was provided ad libitum. Prior to the ingestion of the capsule, a nurse inserted a cannula into the ulnar vein of each volunteer’s nondominant arm, and blood samples were drawn into EDTA-coated tubes at baseline (t = 0). Blood samples were then collected at 0.5, 1, 2, 4, 6, 8, and 10 h after the consumption of the 500 mg capsule. Plasma was separated through centrifugation (10 min at 3000 rpm and 4 °C) and stored at −80 °C until further analysis.
# (§4) Plasma samples were initially treated using a mixture of methanol and ethanol (50:50; v:v) to remove proteins, following previously reported protocols.[19] During the sample treatment, pooled quality controls (pooled-QC) were prepared by combining equal aliquots from each sample. These QC samples were processed by using the same protocols as the experimental biological samples.
# (§5) A reversed-phase analytical C18 column (Agilent Zorbax Eclipse Plus, 1.8 μm, 4.6 × 150 mm^2) with a protective cartridge with the same packing was used. MS data were acquired in negative ionization mode, operating in full scan across a mass-to-charge ratio (m/z) range of 50–1700. The analytical method used was adapted from that described by Villegas-Aguilar et al.[19]
# (§6) Metabolite nutrikinetics were studied using PKSolver, an add-in program for pharmacokinetic data analysis in Microsoft Excel. The time to reach the maximum concentration (observed Tmax) was calculated for each significant metabolite. As an untargeted metabolomic approach was used to detect the circulating metabolites, these were not quantified. Therefore, the maximum concentration (Cmax) and area under the curve (AUC) parameters were calculated in a relative way by using the deconvoluted chromatographic areas. […] Statistical differences were determined by unpaired t tests. All p values less than 0.05 were considered statistically significant.
# [2] = Acute intervention: nutrikinetics of plasma metabolites after ingestion of O. europaea extract (untargeted HPLC-ESI-QTOF-MS)
# Method: as §1, §2, §3, §4, §5, §6
# [3] = 0.5 h after L. citriodora extract
# [4] = 1 h after L. citriodora extract
# [5] = 2 h after L. citriodora extract
# [6] = 4 h after L. citriodora extract
# [7] = 6 h after L. citriodora extract
# [8] = 8 h after L. citriodora extract
# [9] = 10 h after L. citriodora extract
# [10] = human plasma, 500 mg capsule of L. citriodora (LC) extract, oral, mean ± SD
# [11] = 0.5 h after O. europaea extract
# [12] = human plasma, 500 mg capsule of O. europaea (OE) extract, oral, mean ± SD
Molecule,"mean chromatographic area in plasma, T0.5 [1, 3]","mean chromatographic area in plasma, T1 [1, 4]","mean chromatographic area in plasma, T2 [1, 5]","mean chromatographic area in plasma, T4 [1, 6]","mean chromatographic area in plasma, T6 [1, 7]","mean chromatographic area in plasma, T8 [1, 8]","mean chromatographic area in plasma, T10 [1, 9]","AUC: area under the zero-moment curve [1, 10]","Cmax: relative maximum plasma level [1, 10]","observed Tmax: time required to reach Cmax [1, 10] [h]","mean chromatographic area in plasma, T0.5 [2, 11]","AUC: area under the zero-moment curve ([1]; human, in vivo, po, 500 mg)","Cmax: relative maximum plasma level ([1]; human, in vivo, po, 500 mg)","mean chromatographic area in plasma, T0.5 ([1]; in vivo)","mean chromatographic area in plasma, T1 ([1]; in vivo)","mean chromatographic area in plasma, T2 ([1]; in vivo)","mean chromatographic area in plasma, T4 ([1]; in vivo)","mean chromatographic area in plasma, T6 ([1]; in vivo)","mean chromatographic area in plasma, T8 ([1]; in vivo)","mean chromatographic area in plasma, T10 ([1]; in vivo)",also measured
Cc1cccc(O)c1O [3-methylcatechol],0,0,0,86,91,76,58,565 ± 407 relative chromatographic area/h,169 ± 59 relative chromatographic area,8 ± 3,290,,,,,,,,,,"mean chromatographic area in plasma, T1 ([2]; 1 h after O. europaea extract): 235; mean chromatographic area in plasma, T2 ([2]; 2 h after O. europaea extract): 50; mean chromatographic area in plasma, T4 ([2]; 4 h after O. europaea extract): 64; mean chromatographic area in plasma, T6 ([2]; 6 h after O. europaea extract): 16; mean chromatographic area in plasma, T8 ([2]; 8 h after O. europaea extract): 13; mean chromatographic area in plasma, T10 ([2]; 10 h after O. europaea extract): 0; Cmax: relative maximum plasma level [2, 12]: 307 ± 160 relative chromatographic area; observed Tmax: time required to reach Cmax [2, 12]: 0.6 ± 0.2 h"
COc1cc(C=CC(=O)O)ccc1OS(=O)(=O)O [ferulic acid 4-sulfate],33,131,259,230,222,152,39,1752 ± 1781 relative chromatographic area/h,354 ± 254 relative chromatographic area,3 ± 2,0,,,,,,,,,,"mean chromatographic area in plasma, T1 ([2]; 1 h after O. europaea extract): 78; mean chromatographic area in plasma, T2 ([2]; 2 h after O. europaea extract): 84; mean chromatographic area in plasma, T4 ([2]; 4 h after O. europaea extract): 22; mean chromatographic area in plasma, T6 ([2]; 6 h after O. europaea extract): 18; mean chromatographic area in plasma, T8 ([2]; 8 h after O. europaea extract): 0; mean chromatographic area in plasma, T10 ([2]; 10 h after O. europaea extract): 0; Cmax: relative maximum plasma level [2, 12]: 142 ± 20 relative chromatographic area; observed Tmax: time required to reach Cmax [2, 12]: 1.6 ± 0.5 h"
"COc1cc(CC(=O)O)ccc1OS(=O)(=O)O [homovanillic acid sulfate isomer 1, homovanillic acid sulfate]",,,,,,,,,,,,1391 ± 1144 relative chromatographic area/h,341 ± 164 relative chromatographic area,0,0,19,147,209,221,207,"Cmax: relative maximum plasma level ([2]; human, in vivo, po, 500 mg): 233 ± 69 relative chromatographic area; mean chromatographic area in plasma, T0.5 ([2]; in vivo): 65; mean chromatographic area in plasma, T1 ([2]; in vivo): 212; mean chromatographic area in plasma, T2 ([2]; in vivo): 192; mean chromatographic area in plasma, T4 ([2]; in vivo): 165; mean chromatographic area in plasma, T6 ([2]; in vivo): 119; mean chromatographic area in plasma, T8 ([2]; in vivo): 108; mean chromatographic area in plasma, T10 ([2]; in vivo): 75"
COc1cc(CCO)ccc1OS(=O)(=O)O [homovanillyl alcohol sulfate],0,0,0,45,81,76,31,437 ± 278 relative chromatographic area/h,156 ± 49 relative chromatographic area,7 ± 2,0,,,,,,,,,,"mean chromatographic area in plasma, T1 ([2]; 1 h after O. europaea extract): 94; mean chromatographic area in plasma, T2 ([2]; 2 h after O. europaea extract): 111; mean chromatographic area in plasma, T4 ([2]; 4 h after O. europaea extract): 61; mean chromatographic area in plasma, T6 ([2]; 6 h after O. europaea extract): 0; mean chromatographic area in plasma, T8 ([2]; 8 h after O. europaea extract): 0; mean chromatographic area in plasma, T10 ([2]; 10 h after O. europaea extract): 0; Cmax: relative maximum plasma level [2, 12]: 135 ± 32 relative chromatographic area; observed Tmax: time required to reach Cmax [2, 12]: 2.0 ± 0.9 h"
OCCc1ccc(O)c(O)c1 [hydroxytyrosol],,,,,,,,,,,,,,,,,,,,,"AUC of the sulfated form compared to the glucuronidated form ([1]; human, in vivo): about 10 times; detection in plasma samples ([2]; in vivo): detected in plasma samples"
"COc1cc(C(=O)O)ccc1OS(=O)(=O)O [vanillic acid 4-O-sulfate isomer 1, vanillic acid 4-O-sulfate]",0,0,97,395,548,588,365,3576 ± 3122 relative chromatographic area/h,874 ± 644 relative chromatographic area,8 ± 3,275,,,,,,,,,,"mean chromatographic area in plasma, T1 ([2]; 1 h after O. europaea extract): 489; mean chromatographic area in plasma, T2 ([2]; 2 h after O. europaea extract): 354; mean chromatographic area in plasma, T4 ([2]; 4 h after O. europaea extract): 279; mean chromatographic area in plasma, T6 ([2]; 6 h after O. europaea extract): 216; mean chromatographic area in plasma, T8 ([2]; 8 h after O. europaea extract): 137; mean chromatographic area in plasma, T10 ([2]; 10 h after O. europaea extract): 60; Cmax: relative maximum plasma level [2, 12]: 489 ± 147 relative chromatographic area; observed Tmax: time required to reach Cmax [2, 12]: 1.0 ± 0.0 h"
"COc1cc(C(=O)O)ccc1OS(=O)(=O)O [vanillic acid 4-O-sulfate isomer 2, vanillic acid 4-O-sulfate]",18,102,43,0,0,0,0,152 ± 118 relative chromatographic area/h,119 ± 41 relative chromatographic area,1.2 ± 0.4,,,,,,,,,,,
C[C@@H]1O[C@@H](O[C@@H]2[C@@H](O)[C@H](OCCc3ccc(O)c(O)c3)O[C@H](CO)[C@H]2OC(=O)/C=C/c2ccc(O)c(O)c2)[C@H](O)[C@H](O)[C@H]1O [verbascoside],,,,,,,,,,,,,,,,,,,,,detection in plasma samples (native form or phase II metabolites) ([1]; in vivo): has not been detected in plasma samples
gardoside [gardoside isomer 1],,,,,,,,,,,,608 ± 375 relative chromatographic area/h,211 ± 72 relative chromatographic area,0,85,211,86,27,0,0,"observed Tmax: time required to reach Cmax ([1]; human, in vivo, po, 500 mg): 2 ± 0 h"
gardoside [gardoside isomer 2],,,,,,,,,,,,2015 ± 547 relative chromatographic area/h,508 ± 110 relative chromatographic area,123,328,480,284,151,51,15,"observed Tmax: time required to reach Cmax ([1]; human, in vivo, po, 500 mg): 2.3 ± 0.7 h"
pteroside Z [pteroside Z isomer 1],,,,,,,,,,,,123 ± 53 relative chromatographic area/h,120 ± 22 relative chromatographic area,0,105,28,0,0,0,0,"observed Tmax: time required to reach Cmax ([1]; human, in vivo, po, 500 mg): 1.2 ± 0.4 h"
pteroside Z [pteroside Z isomer 2],,,,,,,,,,,,310 ± 84 relative chromatographic area/h,181 ± 58 relative chromatographic area,28,152,97,18,0,0,0,"observed Tmax: time required to reach Cmax ([1]; human, in vivo, po, 500 mg): 2 ± 1 h"
